Data as given in PubChem BioAssay (NCI).
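These data come from cells grown in 96-well plates and exposed to compound for 48 hours at five concentrations. Abbreviation: GI50, concentration required for 50% inhibition of growth. TGI is the concentration that stops growth completely.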

Columns and labels:
Assay in all cases: NCI tumour cell line growth inhibition, 48 h
SNB-75 CNS = system: SNB-75 CNS
SW-620 colon = system: SW-620 colon
HT29 colon = system: HT29 colon
LOX IMVI melanoma = system: LOX IMVI melanoma
CCRF-CEM leukemia = system: CCRF-CEM leukemia
IGROV1 ovarian = system: IGROV1 ovarian
EKVX NSCLC = system: EKVX NSCLC
NCI-H460 lung = system: NCI-H460 lung
UACC-62 melanoma = system: UACC-62 melanoma
NCI-H226 lung = system: NCI-H226 lung

SMILES	GI50 (SNB-75 CNS) [µM]	TGI (SNB-75 CNS) [µM]	GI50 (SW-620 colon) [µM]	TGI (SW-620 colon) [µM]	GI50 (HT29 colon) [µM]	TGI (HT29 colon) [µM]	GI50 (LOX IMVI melanoma) [µM]	TGI (LOX IMVI melanoma) [µM]	GI50 (CCRF-CEM leukemia) [µM]	TGI (CCRF-CEM leukemia) [µM]	GI50 (IGROV1 ovarian) [µM]	TGI (IGROV1 ovarian) [µM]	GI50 (EKVX NSCLC) [µM]	TGI (EKVX NSCLC) [µM]	GI50 (NCI-H460 lung) [µM]	TGI (NCI-H460 lung) [µM]	GI50 (UACC-62 melanoma) [µM]	TGI (UACC-62 melanoma) [µM]	GI50 (NCI-H226 lung) [µM]	TGI (NCI-H226 lung) [µM]
COc1ccc(OC)c(/C=C/C(=O)N/N=C/c2ccc(Cl)cc2)c1	0.0537	0.674	0.0577	> 100	0.0388	4.65	0.115	> 100	0.141	> 100	0.123	> 79.3	0.704	> 100	0.0704	> 37.1	0.058	> 100	0.909	> 100
CCc1[nH]c(=O)nc(N)c1-c1ccc(N2CCCCC2)c([N+](=O)[O-])c1	–	> 100	–	> 100	–	> 100	–	> 100	–	> 100	–	> 100	–	> 100	–	> 100	–	> 100	–	> 100
CC(=O)[CH-]C(=O)c1ccccc1.CC(=O)[CH-]C(=O)c1ccccc1.O=C([O-])c1ccc([O-])cc1.O=C([O-])c1ccc([O-])cc1.[Ti+4]	29.1	> 100	43	> 100	51.2	> 100	28.9	> 100	15.4	62.8	84.3	> 100	23.9	79.6	44.2	> 100	37.2	> 100	37.3	> 100
CN/N=C(/CCN1CCCC1)CC(c1ccccc1)c1c(O)c2ccccc2oc1=O (stereo not given)	–	> 31.6	–	> 100	–	> 100	–	> 100	–	> 100	–	> 100	–	> 100	–	> 100	–	> 100	–	> 100
CC(=O)OC1Oc2ccccc2-c2oc(=O)c(-c3cc4ccc(N(C)C)cc4oc3=O)cc21 (stereo not given)	9.9	25.4	20.6	> 100	22	> 100	10.4	23	2.89	24.2	14.6	36.9	1.78	22.2	11.8	33.1	14.3	29.5	11.2	28.3
O=C(c1cccc(O)c1O)c1cn(Cc2ccc(F)cc2)c2cccc(O)c12	2.49	12	5.26	19.9	7.43	23.4	2.58	16.1	0.861	6.44	0.833	7.85	9.3	> 54.4	2.01	11	4.27	14.6	15.9	43.8
CC1CN1CC(O)C(O)CN1CC1C (stereo not given)	4.08	> 63	2.47	> 62	2.87	19.7	0.814	11.4	1.41	> 100	4.09	42.2	13.8	> 80.6	0.319	13	2.99	> 53.2	5.23	50.1
CCS(=O)(=O)c1ccc(OC)c(Nc2ncc(-c3cccc(OC)c3)o2)c1	6.26	> 18.2	9.09	> 25	10.8	> 25	6.12	24.8	10.7	> 25	6.8	> 20.7	18.9	> 25	11.9	> 25	9.52	> 25	4.65	> 23.6
Cc1ccc(S(=O)(=O)n2c(-c3ccccc3)c(-c3ccccc3)c3ccccc32)cc1	–	> 100	–	> 100	–	> 100	–	> 100	–	> 100	–	> 100	–	> 100	–	> 100	–	> 100	–	> 100
Cc1cccc(NC(=O)C(=O)Cc2nc3ccccc3[nH]c2=O)c1C	–	> 100	–	> 100	–	> 100	–	> 100	–	> 100	–	> 100	–	> 100	–	> 100	–	> 100	–	> 100
COc1cc2oc(-c3ccc(O)cc3)cc(=O)c2c(OC)c1OC	–	> 100	–	> 100	–	> 100	–	> 100	–	> 100	–	> 100	–	> 100	–	> 100	–	> 100	–	> 100
Cc1ccc(Nc2nc3c(s2)C(=O)c2ccccc2C3=O)c(C)c1	–	30.1	–	43.5	–	48.3	–	35.4	–	25.8	–	33.1	–	33	–	54.2	–	29.5	–	17.6
CN(C)CCCn1c2c(c3ccccc3c1=O)C(=O)c1ccccc1-2	14.2	33.1	0.771	10.8	0.749	4.51	0.937	3.19	1.44	28.9	2.29	> 100	11.3	36.8	0.52	10.5	0.516	1.96	1.18	2.74
COC(=O)Nc1nc2ccc(Oc3ccc(NC(=O)Nc4ccccc4)cc3)cc2[nH]1	0.115	7.15	0.101	> 10.2	0.0937	1.01	0.178	> 9.6	0.123	> 8.59	0.665	> 10.9	2.44	> 25	0.129	2.71	0.0933	4.5	0.18	5.21
COC(=O)c1cccc2cccc(C(=O)Nc3ccc(C)cc3C)c12	–	> 100	–	> 100	–	> 100	–	> 100	–	> 100	–	> 100	–	> 100	–	> 100	–	> 100	–	> 100
